Assay results reported in patent publication US6867213B2, “(2S)-2-(adamantan-1-ylmethoxycarbonylamino)-3-(4-(2-(1,4,5,6-tetrhydropyrimidin-2-ylcarbamoyl)ethyl)benzoylamino)propionic acid isopropyl ester, its preparation and its use” (Aventis Pharma Deutschland GmbH, priority 2000, dated 2005).
Structures can show the parent of a compound that is named as a salt.

Columns and labels:
[1] = system: thyroparathyroidectomized (TPTX) rats; test: PTH-induced hypercalcemia in the TPTX rat model of bone resorption; type: in vivo, rat (male Sprague Dawley); details: PTH treated TPTX rats; s.c. twice at 30 mg/kg, at time 0 and 3 h after start of PTH infusion; serum collected at 6 hours
From the text: 3) Pharmacological Testing: PTH-Induced Hypercalcemia in the TPTX Rat Model of Bone Resorption
In this in vivo model a stimulation of bone resorption is induced in thyroparathyroidectomized (TPTX) rats by the infusion of parathyroid hormone (PTH). The changes in bone resorption are monitored by measuring the serum calcium concentration which is directly related to the extent of bone resorption.
Male Sprague Dawley rats (OFA-IFFA CREDO, France) weighting 150-200 g were thyroparathyroidectomized by the supplier. The rats were allowed free access to a standard commercial pelleted diet containing 7 g Ca/kg (UAR) and Eau de Volvic water. The success of thyroparathyroidectomy was tested by measuring serum calcium concentrations 8 days after operation in overnight fasted animals. Rats were considered as TPTX when the serum calcium level was <80 mg/l.
For treatment with PTH, rat PTH(1-34) (Bachem) was dissolved in 0.15 M sodium chloride solution containing 2% Cys-HCl and delivered via osmotic minipumps (ALZET 2001D) at 200 pmol/kg/h. […]
Serum total calcium concentrations (=calcemia) were measured colorimetrically (Ciba-Corning) using a IEMS Labsystems microplate reader at 540 nm. The differences between the mean values of calcemia in the groups were analysed for variance and by Dunnett's test. The activity of the test compound was calculated as % effect according to the formula: [formula]

Row | melting point [°C] | SMILES | % effect (on calcemia = serum total calcium concentration) [1] [%]
1 | 208 to 210 | CC(C)OC(=O)[C@H](CNC(=O)c1ccc(CCC(=O)NC2=NCCCN2)cc1)NC(=O)OCC12CC3CC(CC(C3)C1)C2 (as salt: hydrochloride) [formula IIc, (2S)-2-(Adamantan-1-ylmethoxycarbonylamino)-3-(4-(2-(1,4,5,6-tetrahydropyrimidin-2-ylcarbamoyl)ethyl)benzoylamino)propionic Acid Isopropyl Ester Hydrochloride] | –
2 | – | CC(C)OC(=O)[C@H](CNC(=O)c1ccc(CCC(=O)NC2=NCCCN2)cc1)NC(=O)OCC12CC3CC(CC(C3)C1)C2 [formula IIc, (2S)-2-(Adamantan-1-ylmethoxycarbonylamino)-3-(4-(2-(1,4,5,6-tetrahydropyrimidin-2-ylcarbamoyl)ethyl)benzoylamino)propionic Acid Isopropyl Ester Hydrochloride] | −97
